Laboratory results published in patent US7029695B2, “Therapeutic compositions containing glutathione analogs” (Telik, Inc., priority 2001, dated 2006).

Experiments:
[1] = test system: fluorouracil-induced neutropenia; conditions: liposomal formulation of Example 4; 35 mg/kg i.v., 8 daily injections after fluorouracil 125 mg/kg i.p.; male CD rats
Description: Male CD rats (250–300 g) were injected intraperitoneally with either the antineoplastic drug, fluorouracil (125 mg/kg) or an equivalent volume of its vehicle (saline). […] Rats originally injected with saline rather than fluorouracil received saline intravenously (n=7). Blood samples were taken for measurement of neutrophil levels prior to the fluorouracil and every 1 to 2 days thereafter for 14 days.

[2] = test system: circulating neutrophil levels; conditions: liposomal formulation of Example 4; 35 mg/kg i.v., 5 daily injections; normal male CD rats
From the text: Blood samples were taken for measurement of neutrophil levels daily.

**Q.** “γ-Glutamyl-S(benzyl)cysteinyl-R-phenyl glycine diethyl ester hydrochloride [Compound 9]” was tested. Which “recovery from chemotherapy-induced neutropenia” value [1] did it give?
**A.** accelerated recovery

**Q.** What about the circulating neutrophil levels [2] of the same substance?
**A.** increased
